Measurements taken from US7192746B2, “α-Isomaltosyltransferase, process for producing the same and use thereof” (Kabushiki Kaisha Hayashibara Seibutsu Kagaku Kenkyujo, priority 2000, dated 2007).

How the values were obtained:
Assay in all cases: Specificity to transferring acceptor
Format in all cases: biochemical
Parameters in all cases: key: −: no saccharide transferred product was formed; ±: a saccharide-transferred product formed in an amount of less than one percent to the total sugars; +: a saccharide-transferred product was formed in an amount of over one percent but below 10% to the total sugars; ++: a saccharide-transferred product was formed in an amount of over 10% to the total sugars
[1] = system: α-isomaltosyl-transferring enzyme from Bacillus globisporus C11; details: panose as saccharide donor, 10 units/g substrate, 3.2% (w/v), 30° C., pH 6.0, 24 hours
Description: (§1) Saccharides were tested as follows to examine whether they can be used as transferring acceptors for the α-isomaltosyl-transferring enzyme of the present invention. A solution of D-glucose, D-xylose, L-xylose, D-galactose, D-fructose, D-mannose, D-arabinose, D-fucose, L-sorbose, L-rhamnose, methyl-α-glucoside (or methyl-α-glucopyranoside), methyl-β-glucoside (or methyl-β-glucopyranoside), N-acetyl-D-glucosamine, D-ribose, L-ribose, D-psicose, sorbitol, xylitol, mannitol, arabitol, ribitol, erythritol, maltose, maltotriose, maltotetraose, maltopentaose, isomaltose, isomaltotriose, α,α-trehalose, α,β-trehalose, kojibiose, nigerose, cellobiose, gentibiose, isopanose, maltitol, maltotriitol, lactose, sucrose, erlose, isomaltosylglucoside, α-cyclodextrin, β-cyclodextrin, γ-cyclodextrin, or L-ascorbic acid was prepared. To each solution was added panose as a saccharide donor to give an equal concentration, admixed with 10 units/g substrate of a purified specimen of either α-isomaltosyl-transferring enzyme from Bacillus globisporus C9 obtained by the method in Experiment 4, Bacillus globisporus C11 obtained by the method in Experiment 7, Bacillus globisporus N75 obtained by the method in Experiment 11, or Arthrobacter ramosus S1 obtained by the method in Experiment 15, or a partially purified specimen of α-isomaltosyl-transferring enzyme from Arthrobacter globiformis A19 obtained by the method in Experiment 18, followed by adjusting the saccharide concentration to 3.2% (w/v). The mixtures thus obtained were enzymatically reacted at 30° C. and Ph 6.0 for 24 hours. The saccharide composition of the resulting reaction mixtures were analyzed on gas chromatography (abbreviated as “GLC” hereinafter) for monosaccharides and disaccharides as testing saccharides, and on HPLC for tri- or higher-saccharides as testing saccharides to confirm whether these saccharides can be used as transferring acceptors for the above enzymes with an index of the positive or negative formation of a saccharide transferred product. In performing GLC, the following apparatuses and conditions were used: GLC apparatus, “GC-16A” commercialized by Shimadzu Corporation, Tokyo, Japan; column, a stainless-steel column, 3 mm in diameter and 2 m in length, packed with 2% “SILICONE OV-17/[…]”, commercialized by GL Sciences Inc., Tokyo, Japan; carrier gas, nitrogen gas at a flow rate of 40 ml/min under temperature conditions of increasing from 160° C. to 320° C. at an increasing temperature rate of 7.5° C./min; and detection, a hydrogen flame ionization detector. In the case of HPLC analysis, the apparatuses and conditions used were: HPLC apparatus, “CCPD” commercialized by Tosoh Corporation, Tokyo, Japan; column, “ODS-AQ-303” commercialized by YMC Co., Ltd., Tokyo, Japan; eluent, water at a flow rate of 0.5 ml/min; and detection, a differential refractometer.

[2] = system: α-isomaltosyl-transferring enzyme from Arthrobacter globiformis A19; details: partially purified enzyme, panose as saccharide donor, 10 units/g substrate, 3.2% (w/v), 30° C., pH 6.0, 24 hours
Description: as §1

[3] = system: α-isomaltosyl-transferring enzyme from Bacillus globisporus C9; details: panose as saccharide donor, 10 units/g substrate, 3.2% (w/v), 30° C., pH 6.0, 24 hours
Description: as §1

[4] = system: α-isomaltosyl-transferring enzyme from Arthrobacter ramosus S1; details: panose as saccharide donor, 10 units/g substrate, 3.2% (w/v), 30° C., pH 6.0, 24 hours
Description: as §1

[5] = system: α-isomaltosyl-transferring enzyme from Bacillus globisporus N75; details: panose as saccharide donor, 10 units/g substrate, 3.2% (w/v), 30° C., pH 6.0, 24 hours
Description: as §1

Row | Compound | Product of transferring reaction, Enzyme of Strain C11 [1] | Product of transferring reaction, Enzyme of Stain A19 [2] | Product of transferring reaction, Enzyme of Strain C9 [3] | Product of transferring reaction, Enzyme of Strain S1 [4] | Product of transferring reaction, Enzyme of Strain N75 [5]
1 | OC[C@@H](O)[C@@H](O)CO [Erythritol, erythritol] | + (a saccharide-transferred product was formed in an amount of over one percent but below 10% to the total sugars) | ± (a saccharide-transferred product formed in an amount of less than one percent to the total sugars) | + (a saccharide-transferred product was formed in an amount of over one percent but below 10% to the total sugars) | + (a saccharide-transferred product was formed in an amount of over one percent but below 10% to the total sugars) | + (a saccharide-transferred product was formed in an amount of over one percent but below 10% to the total sugars)
2 | O=C1O[C@H]([C@@H](O)CO)C(O)=C1O [L-Ascorbic acid, L-ascorbic acid] | ++ (a saccharide-transferred product was formed in an amount of over 10% to the total sugars) | + (a saccharide-transferred product was formed in an amount of over one percent but below 10% to the total sugars) | ++ (a saccharide-transferred product was formed in an amount of over 10% to the total sugars) | ++ (a saccharide-transferred product was formed in an amount of over 10% to the total sugars) | ++ (a saccharide-transferred product was formed in an amount of over 10% to the total sugars)
3 | C[C@H](O)[C@H](O)[C@@H](O)[C@@H](O)C=O [L-Rhamnose, L-rhamnose] | ± (a saccharide-transferred product formed in an amount of less than one percent to the total sugars) | ± (a saccharide-transferred product formed in an amount of less than one percent to the total sugars) | ± (a saccharide-transferred product formed in an amount of less than one percent to the total sugars) | + (a saccharide-transferred product was formed in an amount of over one percent but below 10% to the total sugars) | ± (a saccharide-transferred product formed in an amount of less than one percent to the total sugars)
4 | O=C[C@@H](O)[C@@H](O)[C@@H](O)CO [L-Ribose, L-ribose] | − | ± (a saccharide-transferred product formed in an amount of less than one percent to the total sugars) | − | ++ (a saccharide-transferred product was formed in an amount of over 10% to the total sugars) | −
5 | O=C(CO)[C@@H](O)[C@H](O)[C@@H](O)CO [L-Sorbose, L-sorbose] | + (a saccharide-transferred product was formed in an amount of over one percent but below 10% to the total sugars) | + (a saccharide-transferred product was formed in an amount of over one percent but below 10% to the total sugars) | + (a saccharide-transferred product was formed in an amount of over one percent but below 10% to the total sugars) | + (a saccharide-transferred product was formed in an amount of over one percent but below 10% to the total sugars) | + (a saccharide-transferred product was formed in an amount of over one percent but below 10% to the total sugars)
6 | O=C[C@@H](O)[C@H](O)[C@@H](O)CO [L-Xylose, L-xylose] | ++ (a saccharide-transferred product was formed in an amount of over 10% to the total sugars) | ++ (a saccharide-transferred product was formed in an amount of over 10% to the total sugars) | ++ (a saccharide-transferred product was formed in an amount of over 10% to the total sugars) | ++ (a saccharide-transferred product was formed in an amount of over 10% to the total sugars) | ++ (a saccharide-transferred product was formed in an amount of over 10% to the total sugars)
7 | OC[C@@H](O)[C@@H](O)[C@H](O)[C@H](O)CO [Mannitol, mannitol] | − | − | − | − | −
8 | CO[C@H]1O[C@H](CO)[C@@H](O)[C@H](O)[C@H]1O [Methyl-α-glucoside, methyl-α-glucoside] | ++ (a saccharide-transferred product was formed in an amount of over 10% to the total sugars) | ++ (a saccharide-transferred product was formed in an amount of over 10% to the total sugars) | ++ (a saccharide-transferred product was formed in an amount of over 10% to the total sugars) | ++ (a saccharide-transferred product was formed in an amount of over 10% to the total sugars) | ++ (a saccharide-transferred product was formed in an amount of over 10% to the total sugars)
9 | CO[C@@H]1O[C@H](CO)[C@@H](O)[C@H](O)[C@H]1O [Methyl-β-glucoside, methyl-β-glucoside] | ++ (a saccharide-transferred product was formed in an amount of over 10% to the total sugars) | + (a saccharide-transferred product was formed in an amount of over one percent but below 10% to the total sugars) | ++ (a saccharide-transferred product was formed in an amount of over 10% to the total sugars) | + (a saccharide-transferred product was formed in an amount of over one percent but below 10% to the total sugars) | ++ (a saccharide-transferred product was formed in an amount of over 10% to the total sugars)
10 | CC(=O)N[C@H]1C(O)O[C@H](CO)[C@@H](O)[C@@H]1O (stereo partly drawn) [N-Acetyl-glucosamine, N-acetyl-D-glucosamine] | − | − | − | − | −
11 | OC[C@@H](O)[C@@H](O)[C@@H](O)CO [Ribitol, ribitol] | − | − | − | ± (a saccharide-transferred product formed in an amount of less than one percent to the total sugars) | −
